Laboratory results taken from ChEMBL document CHEMBL5728961, “Compounds useful for treating gastrointestinal tract disorders” (2022).

Columns and labels:
[1] = biological target: T1, Sodium/hydrogen exchanger 3 (Homo sapiens, UniProt P48764); assay: Cell-Based Assay of NHE-3 Activity (Pre-Incubation Inhibition): Rat and human NHE-3-mediated Na+-dependent H+ antiport was measured using a modification of the pH sensitive dye method originally reported by Paradiso (Proc. Natl. Acad. Sci. USA. (1984) 81(23): 7436-7440). PS120 fibroblasts stably expressing human NHE3 and NHERF2 were obtained from Mark Donowitz (Baltimore, Md.). Opossum kidney (OK) cells were obtained from the ATCC and propagated per their instructions. The rat NHE-3 gene (GenBank M85300) was introduced into OK cells via electroporation, and cells were seeded into 96 well plates and grown overnight. Medium was aspirated from the wells then incubated for 30 min at 37° C. with NH4Cl-HEPES buffer (20 mM NH4Cl, 80 mM NaCl, 50 mM HEPES, 5 mM KCl, 2 mM CaCl2, 1 mM MgCl2, pH 7.4) containing 5 μM BCECF-AM. Cells were washed once with Ammonium free, Na+-free HEPES (100 mM choline, 50 mM HEPES, 10 mM glucose, 5 mM KCl, 2 mM CaCl2, 1 mM MgCl2, pH 7.4) and incubated in the same buffer for 10 minutes at room temperature to lower intracellular pH with 0-30 μM test compound. […] Changes in intracellular pH were monitored using a FLIPR Tetra® (Molecular Devices, Sunnyvale, Calif.) by excitation at λex 439 to 505 nm, and measuring BCECF fluorescence at λem 538 nm. The initial rate of the fluorescence ratio change was used as a measure of NHE-mediated Na+/H+ activity, and reported as the change in fluorescence ratio per minute.
T1 sequence (P48764 whole entry): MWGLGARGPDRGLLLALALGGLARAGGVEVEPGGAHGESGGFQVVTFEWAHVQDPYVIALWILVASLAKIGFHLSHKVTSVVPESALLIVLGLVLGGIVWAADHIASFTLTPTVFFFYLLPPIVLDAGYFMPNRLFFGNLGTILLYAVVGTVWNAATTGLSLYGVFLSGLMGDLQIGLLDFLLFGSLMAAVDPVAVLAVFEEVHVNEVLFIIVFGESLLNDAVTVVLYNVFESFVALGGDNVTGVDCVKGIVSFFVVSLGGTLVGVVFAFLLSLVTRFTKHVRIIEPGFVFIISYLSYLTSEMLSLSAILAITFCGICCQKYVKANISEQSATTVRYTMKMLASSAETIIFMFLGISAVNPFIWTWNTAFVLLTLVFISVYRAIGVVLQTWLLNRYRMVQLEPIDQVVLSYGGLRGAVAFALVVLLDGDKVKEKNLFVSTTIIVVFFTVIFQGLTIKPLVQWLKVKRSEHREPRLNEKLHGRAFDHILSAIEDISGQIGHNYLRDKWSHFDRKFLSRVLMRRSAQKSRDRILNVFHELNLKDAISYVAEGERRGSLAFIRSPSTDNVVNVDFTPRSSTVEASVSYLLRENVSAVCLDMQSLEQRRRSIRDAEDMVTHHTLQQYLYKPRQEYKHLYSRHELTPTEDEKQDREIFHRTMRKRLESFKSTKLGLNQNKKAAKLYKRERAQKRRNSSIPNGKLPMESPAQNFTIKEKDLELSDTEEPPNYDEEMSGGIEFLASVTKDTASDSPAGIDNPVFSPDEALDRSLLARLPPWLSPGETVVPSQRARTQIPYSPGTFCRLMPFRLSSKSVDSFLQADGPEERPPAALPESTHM

[2] = biological target: T1, Sodium/hydrogen exchanger 3; assay: Cell-Based Assay of NHE-3 Activity (Persistent Inhibition): The ability of compounds to inhibit human and rat NHE-3-mediated Na+ dependent H+ antiport after application and washout was measured using a modification of the pH sensitive dye method described above. PS120 fibroblasts stably expressing human NHE3 and NHERF2 were obtained from Mark Donowitz (Baltimore, Md.). Opossum kidney (OK) cells were obtained from the ATCC and propagated per their instructions. The rat NHE-3 gene was introduced into OK cells via electroporation, and cells were seeded into 96 well plates and grown overnight. Medium was aspirated from the wells, cells were washed once with NaCl-HEPES buffer (100 mM NaCl, 50 mM HEPES, 10 mM glucose, 5 mM KCl, 2 mM CaCl2, 1 mM MgCl2, pH 7.4), then overlayed with NaCl-HEPES buffer containing 0-30 μM test compound. After a 60 min incubation at room temperature, the test drug containing buffer was aspirated from the cells. Following aspiration, cells were washed once with NaCl-HEPES buffer without drug, then incubated for 30 min at 37° C. with NH4Cl-HEPES buffer (20 mM NH4Cl, 80 mM NaCl, 50 mM HEPES, 5 mM KCl, 2 mM CaCl2, 1 mM MgCl2, pH 7.4) containing 5 μM BCECF-AM. Cells were washed once with Ammonium free, Na+-free HEPES (100 mM choline, 50 mM HEPES, 10 mM glucose, 5 mM KCl, 2 mM CaCl2, 1 mM MgCl2, pH 7.4) and incubated in the same buffer for 10 minutes at room temperature to lower intracellular pH. NHE-3-mediated recovery of neutral intracellular pH was initiated ([…]) by addition of Na-HEPES buffer. […] Changes in intracellular pH were monitored using a FLIPR Tetra® (Molecular Devices, Sunnyvale, Calif.) by excitation at λex 439 to 505 nm, and measuring BCECF fluorescence at λem 538 nm. The initial rate of the fluorescence ratio change was used as a measure of NHE-mediated Na+/H+ activity, and reported as the change in fluorescence ratio per minute.

Compound	IC50 [1] [nM]	IC50 [2] [nM]
O=C(NCCCCNC(=O)NCCOCCN1CC[C@H](NS(=O)(=O)c2ccc(O[C@H]3c4cc(Cl)cc(Cl)c4C[C@@H]3N3CCNCC3)c(F)c2)C1)NCCOCCN1CC[C@H](NS(=O)(=O)c2ccc(O[C@H]3c4cc(Cl)cc(Cl)c4C[C@@H]3N3CCNCC3)c(F)c2)C1	< 100	< 100
CN(C)[C@@H]1CCCN([C@H]2Cc3c(C#N)cc(Cl)cc3[C@@H]2Oc2ccc(S(=O)(=O)NCCOCCOCCNC(=O)NCCCCNC(=O)NCCOCCOCCNS(=O)(=O)c3ccc(O[C@H]4c5cc(Cl)cc(C#N)c5C[C@@H]4N4CCC[C@@H](N(C)C)C4)c(F)c3)cc2F)C1	> 1000	> 1000
COc1cc(Cl)cc2c1C[C@H](N1CCC[C@@H](N)C1)[C@H]2Oc1ccc(S(=O)(=O)NCCOCCOCCNC(=O)NCCCCNC(=O)NCCOCCOCCNS(=O)(=O)c2ccc(O[C@H]3c4cc(Cl)cc(OC)c4C[C@@H]3N3CCC[C@@H](N)C3)cc2)cc1	< 100	< 100
CN(C)[C@H]1Cc2c(cc(Cl)cc2C(F)(F)F)[C@@H]1Oc1ccc(S(=O)(=O)NCCOCCOCCNC(=O)NCCCCNC(=O)NCCOCCOCCNS(=O)(=O)c2ccc(O[C@H]3c4cc(Cl)cc(C(F)(F)F)c4C[C@@H]3N(C)C)cc2)cc1	> 1000	> 1000
Cc1cc(Cl)cc2c1C[C@H](N(C)C)[C@H]2Oc1ccc(S(=O)(=O)NCCOCCOCCNC(=O)NCCCCNC(=O)NCCOCCOCCNS(=O)(=O)c2ccc(O[C@H]3c4cc(Cl)cc(C)c4C[C@@H]3N(C)C)c(F)c2)cc1F	< 100	< 100
N#Cc1cc(Cl)cc2c1C[C@H](N1CCC[C@@H](N)C1)[C@H]2Oc1ccc(S(=O)(=O)NCCOCCOCCNC(=O)NCCCCNC(=O)NCCOCCOCCNS(=O)(=O)c2ccc(O[C@H]3c4cc(Cl)cc(C#N)c4C[C@@H]3N3CCC[C@@H](N)C3)cc2)cc1	< 100	< 100
Cc1cc(Cl)cc2c1C[C@H](N1CCC[C@@H](N)C1)[C@H]2Oc1ccc(S(=O)(=O)NCCOCCOCCNC(=O)NCCCCNC(=O)NCCOCCOCCNS(=O)(=O)c2ccc(O[C@H]3c4cc(Cl)cc(C)c4C[C@@H]3N3CCC[C@@H](N)C3)cc2)cc1	< 100	< 100
N[C@@H]1CCCN([C@H]2Cc3c(Cl)cc(Cl)cc3[C@@H]2Oc2c(F)cc(S(=O)(=O)NCCOCCOCCNC(=O)NCCCCNC(=O)NCCOCCOCCNS(=O)(=O)c3cc(F)c(O[C@H]4c5cc(Cl)cc(Cl)c5C[C@@H]4N4CCC[C@@H](N)C4)c(F)c3)cc2F)C1	< 100	< 100
Cc1cc(S(=O)(=O)NCCOCCOCCNC(=O)NCCCCNC(=O)NCCOCCOCCNS(=O)(=O)c2ccc(O[C@H]3c4cc(Cl)cc(C#N)c4C[C@@H]3N3CCC[C@@H](N)C3)c(C)c2)ccc1O[C@H]1c2cc(Cl)cc(C#N)c2C[C@@H]1N1CCC[C@@H](N)C1	> 1000	> 1000
Cc1cc(S(=O)(=O)NCCOCCOCCNC(=O)NCCCCNC(=O)NCCOCCOCCNS(=O)(=O)c2ccc(O[C@H]3c4cc(Cl)cc(Cl)c4C[C@@H]3N3CCC[C@@H](N(C)C)C3)c(C)c2)ccc1O[C@H]1c2cc(Cl)cc(Cl)c2C[C@@H]1N1CCC[C@@H](N(C)C)C1	< 100	< 100
Cc1cc(S(=O)(=O)NCCOCCOCCNC(=O)NCCCCNC(=O)NCCOCCOCCNS(=O)(=O)c2cc(C)c(O[C@H]3c4cc(Cl)cc(Cl)c4C[C@@H]3N3CCC[C@@H](N)C3)cc2F)c(F)cc1O[C@H]1c2cc(Cl)cc(Cl)c2C[C@@H]1N1CCC[C@@H](N)C1	< 100	< 100
CN(C)[C@H]1Cc2c(Cl)cc(Cl)cc2[C@@H]1Oc1ccc(S(=O)(=O)NCCCCCCCCNC(=O)NCCCCNC(=O)NCCCCCCCCNS(=O)(=O)c2ccc(O[C@H]3c4cc(Cl)cc(Cl)c4C[C@@H]3N(C)C)cc2)cc1	> 1000	> 1000
